Source: patent publication US20090209485A1, “MODULATING ANGIOGENESIS WITH NOD FACTORS SUCH AS GLUCOSAMINE OLIGOSACCHARIDES” (priority 2005, published 2009)

Experiments:
Type in all cases: cell-based
rat aorta [1] = assay: Rat aorta angiogenesis assay (vessel outgrowth from aorta fragments in fibrin gel)
Description: Thoracic aortas were excised from three to nine month-old female Fischer rats, rinsed in Hanks balanced salt solution containing 2.5 μg/ml amphotericin B (Sigma, St Louis, Mo.), cleaned of periadventitial fibroadipose tissue and cross-sectioned at 1 mm intervals. The fragments were freed of residual clots. Dissecting and sectioning of the vessels was performed with the aid of a dissecting microscope.
Assays were performed in 48-well culture plates (Costar, Cambridge, Mass.). Five hundred microlitres of 3 mg/ml fibrinogen (bovine plasma, Calbiochem, La Jolla, Calif.) in serum free-Medium 199 (GibcoBRL) was added to each well with 5 μg/ml of aprotinin (Sigma) to prevent fibrinolysis by the vessel fragments. One vessel fragment was placed in the centre of the well and 15 μl of thrombin (50 NIH U/ml in 0.15M NaCl: bovine plasma: Sigma St Louis, Mo.) was added to the well and mixed rapidly with the fibrinogen. Fibrin gel formation usually occurred within 30 seconds and ideally the vessel fragment remained suspended in the centre of the gel. After gel formation, 0.5 ml/well of Medium M199 supplemented with 20% fetal calf serum (FCS) (Sigma), 0.1% 6-aminocaproic acid, 1% L-glutamine, 1%-amphotericin B and 0.6% gentamycin was added. The substances tested for angiogenesis modulating activity (compounds PI-88, 1, 2, 3, 4, 5, 6 and 7) were dissolved in 50% acetonitrile in ultrapure water and diluted at least 1:100 in the supplemented medium M199. Immediately after embedding of vessel fragment in the fibrin gels, 0.5 ml of medium containing the test substance was added to each well and each treatment was performed in six wells. Control cultures received medium without the test substance. Vessels were cultured at 37° C. in 5% CO2 in air for five days and the medium was changed on day four. Vessel growth was quantified manually under 40× magnification on day five, with growth being estimated as the percentage of the field (×40) around the vessel fragment that was occupied by vessel outgrowths.

[2] = tested on: HUVEC (human umbilical vein endothelial cells); assay: HUVEC assay: tube formation on matrigel; conditions: 100 μg/ml, overnight incubation; for Inhibition of HUVEC cell “tiling” and/or change in tube morphology+/−: Matrigel + HUVEC
Description: HUVEC (human umbilical vein endothelial cells) form tubes on a matrigel support. The tubes form a “paving tile” formation after overnight incubation. Nod factor and derivative thereof were added at 100 μg/ml to determine if they inhibited tube formation and/or caused a change in tube morphology.

rat aorta [3] = assay: Rat aorta angiogenesis assay (vessel outgrowth from aorta fragments in fibrin gel); conditions: Table 4, day 6, concentration not given
Mouse Aorta = assay: Mouse aorta angiogenesis assay (vessel outgrowth from aorta fragments in fibrin gel); conditions: Table 5
Description: Thoracic aortas were excised from 6-8 week old female C57 BL/6 mice, rinsed in Hanks balanced salt solution containing 2.5 μg/ml amphotericin B (Sigma, St Louis, Mo.) cleaned of periadventitial fibroadipose tissue and cross-sectioned at 1 mm intervals. The fragments were freed of residual clots. Dissecting and sectioning of the vessels was performed with the aid of a dissecting microscope. Assays were performed in 48-well culture plates (Costar, Cambridge, Mass.). Five hundred microlitres of 3 mg/ml fibrinogen (bovine plasma, Calbiochem, La Jolla, Calif.) in serum free-Medium 199 (GibcoBRL)) was added to each well with 5 ug/ml of aprotinin (Sigma) to prevent fibrinolysis by the vessel fragments. One vessel fragment was placed in the centre of the well and 15 ul of thrombin (50 NIH U/ml in 0.15M NaCl: EC 3.4.21.5 bovine plasma: Sigma St Louis, Mo.) was added to the well and mixed rapidly with the fibrinogen. Fibrin gel formation usually occurred within 30 seconds and ideally the vessel fragment remained suspended in the centre of the gel. […] Vessel growth was quantified manually under 40× magnification on day 7, with growth being estimated as the percentage of the field (×40) around the vessel fragment that was occupied by vessel outgrowths (see Table 5). • ^§Brown, K. J., Maynes, S. F., Bezos, A., Maguire, D. J., Ford, M. D., & Parish, C. […]

[4] = Table 3, Assay 2, testing at 100 μg/mL, '+' = growth above control
[5] = Table 3, Assay 3, testing at 100 μg/mL, '+' = growth above control
[6] = Table 1, 10 μg/mL, % of field occupied by vessel outgrowths, control 82 ± 3.2
[7] = Table 1, 10 μg/mL, '+' = growth above control
[8] = Table 1, 100 μg/mL, % of field around vessel fragment occupied by vessel outgrowths, control 82 ± 3.2
[9] = Table 1, 100 μg/mL, '+' = growth above control
[10] = Table 3, Assay 1, testing at 100 μg/mL
[11] = Table 3, Assay 4, testing at 10 μg/mL
[12] = Table 3, Assay 5, testing at 10 μg/mL
[13] = Table 4, Assay 1, day 5, control growth 27%, concentration not given
[14] = Table 4, Assay 2, day 5, control growth 48%, concentration not given

Compound	% Inhibition (rat aorta [1]; [4]) [%]	% Inhibition (rat aorta [1]; [5]) [%]	Inhibition of HUVEC cell “tiling” and/or change in tube morphology+/− [2]	% Growth (rat aorta [1]; [6]) [%]	% Growth (rat aorta [1]; [8]) [%]	% Inhibit. (rat aorta [1]; [9]) [%]	% Inhibition (rat aorta [1]; [10]) [%]	% Inhibition (rat aorta [1]; [11]) [%]	% Inhibition (rat aorta [1]; [12]) [%]	% Inhibition (rat aorta [3]; Assay 2, control growth 63%) [%]	% Inhibition (rat aorta [1]; [14]) [%]	other results
CC(=O)N[C@H]1[C@H](O[C@H]2[C@H](O)[C@@H](NC(C)=O)[C@H](O[C@H]3[C@H](O)[C@@H](NC(C)=O)[C@H](O[C@H]4[C@H](O)[C@@H](NC(C)=O)C(O)O[C@@H]4CO[C@@H]4O[C@@H](C)[C@@H](O)[C@@H](O)[C@@H]4O)O[C@@H]3CO)O[C@@H]2CO)O[C@H](CO)[C@@H](O[C@@H]2O[C@H](CO)[C@@H](O)[C@H](O)[C@H]2N=[N+]=[N-])[C@@H]1O (some centres unmarked) [Compound 26]	3	15	–	–	–	–	–	–	–	–	–	–
CC(=O)N[C@H]1[C@H](O[C@H]2[C@H](O)[C@@H](NC(C)=O)[C@H](O[C@H]3[C@H](O)[C@@H](NC(C)=O)[C@H](O[C@H]4[C@H](O)[C@@H](NC(C)=O)C(O)O[C@@H]4CO[C@@H]4O[C@@H](C)[C@@H](O)[C@@H](O)[C@@H]4O)O[C@@H]3CO)O[C@@H]2CO)O[C@H](CO)[C@@H](O[C@@H]2O[C@H](CO)[C@@H](O)[C@H](O)[C@H]2N)[C@@H]1O (some centres unmarked) [Compound 6]	–	–	Yes	73 ± 7.5	53 ± 4.8	35	–	–	–	–	–	% Inhibit. (rat aorta [1]; [7]): 11%
CC(=O)N[C@H]1[C@H](O[C@H]2[C@H](O)[C@@H](NC(C)=O)[C@H](O[C@H]3[C@H](O)[C@@H](NC(C)=O)C(O)O[C@@H]3COS(=O)(=O)O)O[C@@H]2CO)O[C@H](CO)[C@@H](O[C@@H]2O[C@H](CO)[C@@H](O)[C@H](O)[C@H]2N)[C@@H]1O (some centres unmarked) [Compound 21]	41	40	–	–	–	–	74	24	33	–	–	–
CC(=O)N[C@H]1[C@H](O[C@H]2[C@H](O)[C@@H](NC(C)=O)[C@H](O[C@H]3[C@H](O)[C@@H](NC(C)=O)C(O)O[C@@H]3CO)O[C@@H]2CO)O[C@H](CO)[C@@H](O[C@@H]2O[C@H](CO)[C@@H](O)[C@H](O)[C@H]2N)[C@@H]1O (some centres unmarked) [Compound 23]	66	29	–	–	–	–	–	14	24	–	–	–
PI-88 [reference compound]	77	68	Yes	–	25 ± 5.4	69	82	18	14	70	66	effect on HUVEC tube formation ([2]; matrigel): affected tube formation; % Inhibition (rat aorta [3]; Assay 1, control growth 43%): 80%; % Inhibit. (rat aorta [1]; Table 2, 100 μg/mL): 47%; % Growth (rat aorta [1]; Table 2, 100 μg/mL, control 74 ± 3.8): 39 ± 6.1%; % Inhibition (rat aorta [1]; [13]): 91%; % Inhibition (rat aorta [1]; Table 4, Assay 1, day 7, control growth 68%, concentration not given): 77%; % Inhibition (rat aorta [1]; Table 4, Assay 2, day 7, control growth 83%, concentration not given): 68%; % Inhibition (Mouse Aorta; 10 μg/ml): 30%; % Inhibition (Mouse Aorta; 100 μg/ml): 93%
CCCCCCC=CCCCOc1cccc(C(=O)N[C@H]2[C@H](O[C@H]3[C@H](O)[C@@H](NC(C)=O)[C@H](O[C@H]4[C@H](O)[C@@H](NC(C)=O)[C@H](O[C@H]5[C@H](O)[C@@H](NC(C)=O)[C@H](O[C@H]6[C@H](O)[C@@H](NC(C)=O)C(O)O[C@@H]6CO[C@@H]6O[C@@H](C)[C@@H](O)[C@@H](O)[C@@H]6O)O[C@@H]5CO)O[C@@H]4CO)O[C@@H]3CO)O[C@H](CO)[C@@H](O)[C@@H]2O)c1 (some centres unmarked) [Compound 25]	76	73	–	–	–	–	–	24	21	–	–	% Inhibition (rat aorta [1]; Table 3, Assay 6, testing at 1.0 μg/mL): 8%; % Inhibition (rat aorta [1]; Table 3, Assay 7, testing at 1.0 μg/mL): 3%
CO[C@@H]1[C@H](OC[C@H]2OC(O)[C@H](NC(C)=O)[C@@H](O)[C@@H]2O[C@@H]2O[C@H](CO)[C@@H](O[C@@H]3O[C@H](CO)[C@@H](O[C@@H]4O[C@H](CO)[C@@H](O[C@@H]5O[C@H](CO)[C@@H](O)[C@H](O)[C@H]5N)[C@H](O)[C@H]4NC(C)=O)[C@H](O)[C@H]3NC(C)=O)[C@H](O)[C@H]2NC(C)=O)O[C@@H](C)[C@@H](O)[C@H]1O (some centres unmarked) [Compound 7]	–	–	Yes	94 ± 4.0	90 ± 6.3	–	–	–	–	–	–	–
CC(=O)N[C@H]1[C@H](O[C@H]2[C@H](O)[C@@H](NC(C)=O)[C@H](O[C@H]3[C@H](O)[C@@H](NC(C)=O)[C@H](O[C@H]4[C@H](O)[C@@H](NC(C)=O)C(O)O[C@@H]4CO)O[C@@H]3CO)O[C@@H]2CO)O[C@H](CO)[C@@H](O[C@@H]2O[C@H](CO)[C@@H](O)[C@H](O)[C@H]2N)[C@@H]1O (some centres unmarked) [Compound 1]	–	–	Yes	80 ± 8.4	53 ± 8.0	35	–	–	–	–	–	% Inhibit. (rat aorta [1]; [7]): 2.4%
CC(=O)N[C@H]1C(O)O[C@H](CO)[C@@H](O[C@@H]2O[C@H](CO)[C@@H](O)[C@H](O)[C@H]2N)[C@@H]1O (some centres unmarked) [Compound 22]	–	–	–	–	–	–	5	24	16	0	6	% Inhibition (rat aorta [1]; [13]): 33%
CC(=O)N[C@H]1[C@H](O[C@H]2[C@H](O)[C@@H](NC(C)=O)[C@H](O[C@H]3[C@H](O)[C@@H](NC(C)=O)C(O)O[C@@H]3CO[C@@H]3O[C@@H](C)[C@@H](O)[C@@H](O)[C@@H]3O)O[C@@H]2CO)O[C@H](CO)[C@@H](O[C@@H]2O[C@H](CO)[C@@H](O[C@@H]3O[C@H](CO)[C@@H](O)[C@H](O)[C@H]3NC(=O)Cc3ccccc3)[C@H](O)[C@H]2NC(C)=O)[C@@H]1O (some centres unmarked) [Compound 24]	–	–	–	–	–	–	–	3	1	8	6	–
